We go through 16 molecules from US10023602B2, “Hamamelitannin analogues and uses thereof” (Universiteit Gent, priority 2014, dated 2018).

The test system of assay [1] is methicillin resistant S. aureus Mu50 strain (S. aureus ATCC700699) biofilm. In words: Biofilm susceptibility to vancomycin, pre-treatment regimen (biofilm formed in presence of compound, then vancomycin). The following applies: for Pretreat (100 μM): percentage Colony Forming Units (CFU's) per biofilm: compound 100 μM during biofilm formation, then VAN 20 μg/ml, compared to the untreated (negative) control; for EC50: concentration needed to get 50% killing compared to antibiotic alone (VAN 20 μg/ml) and complete killing, read-out: Pretreat. (EC50). The class given is cell-based. Here is the method: (§1) The compounds were evaluated for their effect on biofilm susceptibility both under pre-treatment and combination treatment regimens. In the pre-treatment regimen, a methicillin resistant S. aureus Mu50 strain (S. aureus ATCC700699) was allowed to form biofilms in the presence of the compounds after which the biofilm was treated with vancomycin (20 μg/ml). In the combination treatment regimen, S. aureus Mu50 was allowed to form a mature biofilm after which it was treated with a combination of a compound and vancomycin. In brief, 100 μl of a standardized inoculum (10^8 CFU/ml) was placed in the wells of a round-bottom 96-well microtiter plate. The cells were allowed to adhere to the plate in the absence (combined treatment) or presence (pre-treatment) of the compounds (0.1-250 μM) for 4 h at 37° C. After this adhesion step, non-adhered cells were removed, the wells were rinsed and fresh medium with or without the compounds was added. The plates were incubated for an additional 20 h at 37° C. After this, the medium was removed, biofilms were rinsed with physiological saline and vancomycin (20 μg/ml) was added alone (pre-treatment) or with the compounds (combined treatment, 0.1-250 μM). Plates were placed at 37° C. for 24 h after which medium was removed, wells were rinsed and the surviving cells in each condition were collected. The number of surviving cells under each condition was compared to vancomycin treatment alone and was assessed by conventional plating. The REF compound (hamamelitannin) was also observed for its effect on biofilm susceptibility towards other antibiotics (incl. vancomycin, cefoxitin, tobramycin, cefazolin, cefalonium, daptomycin, linezolide and cephalexin). Biofilms were formed as described above and were treated with the antibiotics alone or in combination with the REF compound (250 μM). The number of surviving cells under each condition was compared to the untreated control biofilm and was assessed by conventional plating.

For assay [2] the test system is unchanged. The experiment in a line: Biofilm susceptibility to vancomycin, combination treatment regimen (mature biofilm treated with compound plus vancomycin). The following applies: for Combin. (100 μM): percentage Colony Forming Units (CFU's) per biofilm: compound 100 μM together with VAN 20 μg/ml on mature biofilm, compared to the untreated (negative) control; for EC50: concentration needed to get 50% killing compared to antibiotic alone (VAN 20 μg/ml) and complete killing, read-out: Combin. (EC50). The class given is cell-based. Here is the method: as §1

For `O=C(NC[C@]1(O)CO[C@H](CNC(=S)Nc2ccccc2)[C@H]1O)c1ccccc1` [compound 224, N-(((3S,4R,5R)-3,4-dihydroxy-5-((3-phenylthioureido)methyl)tetrahydrofuran-3-yl)methyl)benzamide], in assay [1], the “Pretreat (100 μM): percentage Colony Forming Units (CFU's) per biofilm” value is on record as 20.22 percentage. Besides, the “Combin. (100 μM): percentage Colony Forming Units (CFU's) per biofilm” value in assay [2] came out at 27.33 percentage.
Consider `O=C(NC[C@H]1OC[C@@](O)(CNC(=O)c2ccc(-c3ccccc3)cc2)[C@@H]1O)c1ccnnc1` [compound 253, N-(((2R,3R,4S)-4-([1,1′-biphenyl]-4-carboxamidomethyl)-3,4-dihydroxytetrahydrofuran-2-yl)methyl)pyridazine-4-carboxamide], for which, in assay [1], the “Pretreat (100 μM): percentage Colony Forming Units (CFU's) per biofilm” value was found to be 4.25 percentage and the EC50 (in general, the concentration needed to bring the measured effect to its halfway point) was 8.54 µM. For the same molecule, in assay [2], the “Combin. (100 μM): percentage Colony Forming Units (CFU's) per biofilm” value is given as 22.50 percentage and the EC50 was determined as 45.4 µM.
As for `O=C(NC[C@H]1OC[C@@](O)(CNC(=O)c2ccccc2Cl)[C@@H]1O)c1ccc(-c2ccccc2)cc1` [compound 250, N-(((2R,3R,4S)-4-((2-chlorobenzamido)methyl)-3,4-dihydroxytetrahydrofuran-2-yl)methyl)-[1,1′-biphenyl]-4-carboxamide], in assay [1], the “Pretreat (100 μM): percentage Colony Forming Units (CFU's) per biofilm” value was 18.82 percentage and the EC50 came out at 23 µM. Further, in assay [2], the “Combin. (100 μM): percentage Colony Forming Units (CFU's) per biofilm” value is given as 29.48 percentage and the EC50 is 61.3 µM.
Take `O=C(NC[C@]1(O)CO[C@H](CNS(=O)(=O)c2ccccc2Cl)[C@H]1O)c1ccccc1` [compound 218, N-(((3S,4R,5R)-5-(((2-chlorophenyl)sulfonamido)methyl)-3,4-dihydroxytetrahydrofuran-3-yl)methyl)benzamide]: the “Pretreat (100 μM): percentage Colony Forming Units (CFU's) per biofilm” value in assay [1] was determined as 35.03 percentage. In addition, the “Combin. (100 μM): percentage Colony Forming Units (CFU's) per biofilm” value in assay [2] was 26.88 percentage.
On to `O=C(NC[C@]1(O)CO[C@H](CNC(=O)c2cccc3ccccc23)[C@H]1O)c1ccccc1` [compound 184, N-(((2R,3R,4S)-4-(benzamidomethyl)-3,4-dihydroxytetrahydrofuran-2-yl)methyl)-1-naphthamide], for which the “Pretreat (100 μM): percentage Colony Forming Units (CFU's) per biofilm” value in assay [1] came out at 33.91 percentage. Besides, in assay [2], the “Combin. (100 μM): percentage Colony Forming Units (CFU's) per biofilm” value amounted to 40.23 percentage.
Regarding `O=C(NC[C@H]1OC[C@@](O)(CNC(=O)c2ccnnc2)[C@@H]1O)c1ccnnc1` [compound 257, N,N′-(((2R,3R,4S)-3,4-dihydroxytetrahydrofuran-2,4-diyl)bis(methylene))bis(pyridazine-4-carboxamide)], in assay [1], the “Pretreat (100 μM): percentage Colony Forming Units (CFU's) per biofilm” value is listed as 1.71 percentage and the EC50 was found to be 7.13 µM. In assay [2], the “Combin. (100 μM): percentage Colony Forming Units (CFU's) per biofilm” value came out at 17.13 percentage and the EC50 came out at 18 µM.
Regarding `O=C(NC[C@]1(O)CO[C@H](Cn2nncc2-c2ccccc2)[C@H]1O)c1ccccc1` [compound 222, N-(((3S,4R,5R)-3,4-dihydroxy-5-((5-phenyl-1H-1,2,3-triazol-1-yl)methyl)tetrahydrofuran-3-yl)methyl)benzamide], the “Pretreat (100 μM): percentage Colony Forming Units (CFU's) per biofilm” value in assay [1] turned out to be 47.10 percentage. In addition, the “Combin. (100 μM): percentage Colony Forming Units (CFU's) per biofilm” value in assay [2] was determined as 73.90 percentage.
With `O=C(NC[C@]1(O)CO[C@H](CNC(=O)c2cnccc2Cl)[C@H]1O)c1ccccc1` [compound 201, N-(((2R,3R,4S)-4-(benzamidomethyl)-3,4-dihydroxytetrahydrofuran-2-yl)methyl)-4-chloronicotinamide], in assay [1], the “Pretreat (100 μM): percentage Colony Forming Units (CFU's) per biofilm” value came to 51.81 percentage and the EC50 turned out to be 200 µM. Moreover, in assay [2], the “Combin. (100 μM): percentage Colony Forming Units (CFU's) per biofilm” value is on record as 74.81 percentage and the EC50 is greater than 250 µM.
Take `O=C(NC[C@]1(O)CO[C@H](CNC(=O)c2ncccn2)[C@H]1O)c1ccccc1` [compound 203, N-(((2R,3R,4S)-4-(benzamidomethyl)-3,4-dihydroxytetrahydrofuran-2-yl)methyl)pyrimidine-2-carboxamide]: in assay [1], the “Pretreat (100 μM): percentage Colony Forming Units (CFU's) per biofilm” value worked out at 41.20 percentage. Moreover, the “Combin. (100 μM): percentage Colony Forming Units (CFU's) per biofilm” value in assay [2] is 31.95 percentage.
On the same counts, the results for `Cc1ccc(S(=O)(=O)NC[C@H]2OC[C@@](O)(CNC(=O)c3ccccc3)[C@@H]2O)cc1` [compound 216, N-(((3S,4R,5R)-3,4-dihydroxy-5-(((4-methylphenyl)sulfonamido)methyl)tetrahydrofuran-3-yl)methyl)benzamide] are 16.96 percentage and 25.95 percentage.
Take `O=C(NC[C@]1(O)CO[C@H](CNC(=O)c2ccncc2Cl)[C@H]1O)c1ccccc1` [compound 200, N-(((2R,3R,4S)-4-(benzamidomethyl)-3,4-dihydroxytetrahydrofuran-2-yl)methyl)-3-chloroisonicotinamide]: in assay [1], the “Pretreat (100 μM): percentage Colony Forming Units (CFU's) per biofilm” value is recorded as 58.59 percentage and the EC50 is greater than 250 µM. Also, in assay [2], the “Combin. (100 μM): percentage Colony Forming Units (CFU's) per biofilm” value is recorded as 48.93 percentage and the EC50 was found to be 232 µM.
For the molecule `O=C(NC[C@H]1OC(O)[C@@](O)(CNC(=O)c2ccc(O)c(O)c2)[C@@H]1O)c1ccc(O)c(O)c1` (stereo partly drawn) [compound 17, N,N′-(((2R,3R,4R)-3,4,5-trihydroxytetrahydrofuran-2,4-diyl)bis(methylene))bis(3,4-dihydroxybenzamide)], in assay [1], the “Pretreat (100 μM): percentage Colony Forming Units (CFU's) per biofilm” value is given as 55.76 percentage and the EC50 turned out to be 182 µM. For the same molecule, in assay [2], the “Combin. (100 μM): percentage Colony Forming Units (CFU's) per biofilm” value was found to be 61.16 percentage and the EC50 stood at 169 µM.
As to `O=C(NC[C@H]1OC[C@@](O)(CNC(=O)c2ccccc2)[C@@H]1O)c1ccc(Cl)cc1` [compound 153, N-(((2R,3R,4S)-4-(benzamidomethyl)-3,4-dihydroxytetrahydrofuran-2-yl)methyl)-4-chlorobenzamide], in assay [1], the “Pretreat (100 μM): percentage Colony Forming Units (CFU's) per biofilm” value is on record as 9.185 percentage and the half-maximal effective concentration (EC50) was 18 µM. Besides, in assay [2], the “Combin. (100 μM): percentage Colony Forming Units (CFU's) per biofilm” value amounted to 8.577 percentage and the EC50 is 21.4 µM.
As for `O=C(NC[C@H]1OC(O)[C@@](O)(CNC(=O)c2cc(O)cc(O)c2)[C@@H]1O)c1cc(O)cc(O)c1` (stereo partly drawn) [compound 18, N,N′-(((2R,3R,4R)-3,4,5-trihydroxytetrahydrofuran-2,4-diyl)bis(methylene))bis(3,5-dihydroxybenzamide)], in assay [1], the “Pretreat (100 μM): percentage Colony Forming Units (CFU's) per biofilm” value worked out at 37.58 percentage and the EC50 came to 116 µM. For the same molecule, in assay [2], the “Combin. (100 μM): percentage Colony Forming Units (CFU's) per biofilm” value was found to be 79.55 percentage and the EC50 was found to be 231 µM.
In the case of `O=C(NC[C@]1(O)CO[C@H](CNS(=O)(=O)c2ccccc2-c2ccccc2)[C@H]1O)c1ccccc1` [compound 220, N-(((3S,4R,5R)-5-(([1,1′-biphenyl]-2-sulfonamido)methyl)-3,4-dihydroxytetrahydrofuran-3-yl)methyl)benzamide], the “Pretreat (100 μM): percentage Colony Forming Units (CFU's) per biofilm” value in assay [1] is 25.63 percentage. Also, the “Combin. (100 μM): percentage Colony Forming Units (CFU's) per biofilm” value in assay [2] amounted to 29.85 percentage.
For the molecule `O=C(NC[C@H]1OC[C@@](O)(CNC(=O)c2ccccc2)[C@@H]1O)c1ccccc1` [compound 188, N,N′-(((2R,3R,4S)-3,4-dihydroxytetrahydrofuran-2,4-diyl)bis(methylene))dibenzamide], the “Pretreat (100 μM): percentage Colony Forming Units (CFU's) per biofilm” value in assay [1] came to 34.36 percentage. Further, the “Combin. (100 μM): percentage Colony Forming Units (CFU's) per biofilm” value in assay [2] was 34.64 percentage.
